Target: T1, Human Nav1.8 (Homo sapiens, UniProt Q9Y5Y9)
T1 construct: expressed in transfected cells; host or cells: HEK293
Assay: VIPR assay for Nav1.8 compounds (FRET membrane potential, deltamethrin-opened channels)
Assay type: cell-based
Settings: HEK293 cells expressing human Nav1.8; deltamethrin as opener; read-out: affinity for the NaV1.8 channel (binding affinity; IC50 from VIPR assay)
Excerpt: The ability of the pyridine derivatives of the formula (I) to inhibit the NaV1.8 channel may be measured using the assay described below.
VIPR Assay for Nav1.8 Compounds
This screen is used to determine the effects of compounds on tetrodotoxin-resistant (TTX-R) sodium channels in Human Nav1.8 (HEK293) expressing cell line, utilising the technology of Aurora's fluorescent Voltage/Ion Probe Reader (VIPR). This experiment is based on FRET (Fluorescence Resonance Energy Transfer) and uses two fluorescent molecules. The first molecule, Oxonol (DiSBAC2(3)), is a highly fluorescent, negatively charged, hydrophobic ion that “senses” the trans-membrane electrical potential. […] The voltage dependent redistribution is transduced into a ratiometric fluorescent readout via a second fluorescent molecule (Coumarin (CC2-DMPE)) that binds specifically to one face of the plasma membrane and functions as a FRET partner to the mobile voltage-sensing ion. […]
2. […] Once the incubation is complete, the cells are ready to be assayed using the VIPR for sodium addback membrane potential.
The data was analyzed and reported as normalised ratios of intensities measured in the 460 nm and 580 nm channels. […]
Rf/Ri ratio values are plotted using Excel Labstats (curve fit) or analysed via ECADA to determine an IC50 value for each compound.

T1 sequence (Q9Y5Y9 whole entry): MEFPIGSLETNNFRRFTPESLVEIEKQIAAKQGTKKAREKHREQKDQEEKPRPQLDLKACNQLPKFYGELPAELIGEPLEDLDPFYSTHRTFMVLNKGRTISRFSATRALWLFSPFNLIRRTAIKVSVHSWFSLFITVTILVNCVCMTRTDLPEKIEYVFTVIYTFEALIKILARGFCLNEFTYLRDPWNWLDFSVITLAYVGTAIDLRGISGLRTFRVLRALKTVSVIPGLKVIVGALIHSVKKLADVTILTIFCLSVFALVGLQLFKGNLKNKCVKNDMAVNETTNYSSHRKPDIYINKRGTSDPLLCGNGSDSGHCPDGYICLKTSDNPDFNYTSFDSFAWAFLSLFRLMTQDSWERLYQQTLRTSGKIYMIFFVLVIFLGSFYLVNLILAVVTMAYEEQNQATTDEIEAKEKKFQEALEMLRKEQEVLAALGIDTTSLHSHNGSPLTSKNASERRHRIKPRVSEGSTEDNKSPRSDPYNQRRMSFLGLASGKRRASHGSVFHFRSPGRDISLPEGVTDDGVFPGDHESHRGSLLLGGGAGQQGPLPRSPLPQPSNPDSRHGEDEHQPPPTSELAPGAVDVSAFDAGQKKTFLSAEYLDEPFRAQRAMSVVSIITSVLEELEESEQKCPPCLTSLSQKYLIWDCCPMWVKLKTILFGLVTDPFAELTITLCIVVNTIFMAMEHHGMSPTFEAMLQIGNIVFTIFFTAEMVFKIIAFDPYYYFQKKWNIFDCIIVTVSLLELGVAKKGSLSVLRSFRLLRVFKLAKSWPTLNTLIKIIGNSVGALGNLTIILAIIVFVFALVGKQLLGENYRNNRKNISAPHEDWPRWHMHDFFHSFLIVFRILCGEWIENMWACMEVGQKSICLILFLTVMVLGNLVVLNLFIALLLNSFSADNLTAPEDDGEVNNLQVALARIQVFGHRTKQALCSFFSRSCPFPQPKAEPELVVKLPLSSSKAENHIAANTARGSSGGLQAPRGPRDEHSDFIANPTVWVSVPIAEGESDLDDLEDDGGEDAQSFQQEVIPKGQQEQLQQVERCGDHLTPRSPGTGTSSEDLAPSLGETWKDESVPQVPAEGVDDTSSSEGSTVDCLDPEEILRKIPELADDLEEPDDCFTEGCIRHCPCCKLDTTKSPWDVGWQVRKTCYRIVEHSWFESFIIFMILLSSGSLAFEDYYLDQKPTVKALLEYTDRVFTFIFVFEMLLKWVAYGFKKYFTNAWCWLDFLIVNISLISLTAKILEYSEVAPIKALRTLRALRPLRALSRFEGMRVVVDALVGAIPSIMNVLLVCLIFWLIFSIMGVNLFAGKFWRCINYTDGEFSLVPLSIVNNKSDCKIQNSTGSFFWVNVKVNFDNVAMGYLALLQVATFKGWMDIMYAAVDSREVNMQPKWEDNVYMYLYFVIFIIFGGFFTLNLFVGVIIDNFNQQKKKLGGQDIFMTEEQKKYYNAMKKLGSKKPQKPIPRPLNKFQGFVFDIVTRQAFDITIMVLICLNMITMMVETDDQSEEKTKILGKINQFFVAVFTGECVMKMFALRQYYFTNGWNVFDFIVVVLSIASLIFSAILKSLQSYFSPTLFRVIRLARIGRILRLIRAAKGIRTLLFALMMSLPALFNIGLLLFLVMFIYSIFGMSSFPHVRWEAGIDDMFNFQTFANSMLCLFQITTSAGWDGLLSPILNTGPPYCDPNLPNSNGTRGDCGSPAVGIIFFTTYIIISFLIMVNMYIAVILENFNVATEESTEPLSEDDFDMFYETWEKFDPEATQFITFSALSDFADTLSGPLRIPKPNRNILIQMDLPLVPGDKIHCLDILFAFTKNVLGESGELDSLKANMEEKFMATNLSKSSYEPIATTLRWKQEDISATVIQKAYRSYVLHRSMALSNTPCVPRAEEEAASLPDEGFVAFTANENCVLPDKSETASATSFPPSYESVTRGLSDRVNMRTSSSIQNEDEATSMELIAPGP

SMILES: CNC(=O)c1ccc(-c2cc(Cl)cc(Cl)c2Cl)c(N)n1 [Example 1, 6-Amino-5-(2,3,5-trichloro-phenyl)-pyridine-2-carboxylic acid methylamide]
- IC50: 2040 nM

— US7649004B2, “Pyridine derivatives” (Pfizer, Inc., priority 2004, dated 2010)
